Patent US8796244B2, “Imidazopyridine derivatives as inhibitors of receptor tyrosine kinases” (Astex Therapeutics Ltd, priority 2008, dated 2014)
Where a name gives a salt, the structure may show the parent alone. One block for each compound: values may come before it.

Columns and labels:
[1] = test system: LP-1 cell line (FGF-1/Heparin induced pERK); test: Cell-based pERK ELISA, LP-1 cells; conditions: Homo sapiens, LP-1, read-out: LP-1 pERK ELISA (μM)
[2] = test system: parental wild-type Ba/F3 cells; test: Ba/F3 (WT) cell proliferation assay (Alamar Blue); type: cell-based; conditions: Mus musculus; for inhibition at 3 µM / inhibition at 10 µM / inhibition at 1 µM: BaF3, read-out: BaF3 WT prolif, % inhibition; for IC50: BaF3, 72 hours, Alamar Blue, read-out: BaF3 WT prolif
VEGFR2 = VEGFR2 (Homo sapiens (Human), UniProt P35968); test: VEGFR2 in vitro kinase inhibitory activity assay (TRF, Flt3 substrate); type: biochemical; conditions: for inhibition at 1 µM: 1 h, read-out: VEGFR2 % I
VEGFR2, sequence (P35968 20-1356): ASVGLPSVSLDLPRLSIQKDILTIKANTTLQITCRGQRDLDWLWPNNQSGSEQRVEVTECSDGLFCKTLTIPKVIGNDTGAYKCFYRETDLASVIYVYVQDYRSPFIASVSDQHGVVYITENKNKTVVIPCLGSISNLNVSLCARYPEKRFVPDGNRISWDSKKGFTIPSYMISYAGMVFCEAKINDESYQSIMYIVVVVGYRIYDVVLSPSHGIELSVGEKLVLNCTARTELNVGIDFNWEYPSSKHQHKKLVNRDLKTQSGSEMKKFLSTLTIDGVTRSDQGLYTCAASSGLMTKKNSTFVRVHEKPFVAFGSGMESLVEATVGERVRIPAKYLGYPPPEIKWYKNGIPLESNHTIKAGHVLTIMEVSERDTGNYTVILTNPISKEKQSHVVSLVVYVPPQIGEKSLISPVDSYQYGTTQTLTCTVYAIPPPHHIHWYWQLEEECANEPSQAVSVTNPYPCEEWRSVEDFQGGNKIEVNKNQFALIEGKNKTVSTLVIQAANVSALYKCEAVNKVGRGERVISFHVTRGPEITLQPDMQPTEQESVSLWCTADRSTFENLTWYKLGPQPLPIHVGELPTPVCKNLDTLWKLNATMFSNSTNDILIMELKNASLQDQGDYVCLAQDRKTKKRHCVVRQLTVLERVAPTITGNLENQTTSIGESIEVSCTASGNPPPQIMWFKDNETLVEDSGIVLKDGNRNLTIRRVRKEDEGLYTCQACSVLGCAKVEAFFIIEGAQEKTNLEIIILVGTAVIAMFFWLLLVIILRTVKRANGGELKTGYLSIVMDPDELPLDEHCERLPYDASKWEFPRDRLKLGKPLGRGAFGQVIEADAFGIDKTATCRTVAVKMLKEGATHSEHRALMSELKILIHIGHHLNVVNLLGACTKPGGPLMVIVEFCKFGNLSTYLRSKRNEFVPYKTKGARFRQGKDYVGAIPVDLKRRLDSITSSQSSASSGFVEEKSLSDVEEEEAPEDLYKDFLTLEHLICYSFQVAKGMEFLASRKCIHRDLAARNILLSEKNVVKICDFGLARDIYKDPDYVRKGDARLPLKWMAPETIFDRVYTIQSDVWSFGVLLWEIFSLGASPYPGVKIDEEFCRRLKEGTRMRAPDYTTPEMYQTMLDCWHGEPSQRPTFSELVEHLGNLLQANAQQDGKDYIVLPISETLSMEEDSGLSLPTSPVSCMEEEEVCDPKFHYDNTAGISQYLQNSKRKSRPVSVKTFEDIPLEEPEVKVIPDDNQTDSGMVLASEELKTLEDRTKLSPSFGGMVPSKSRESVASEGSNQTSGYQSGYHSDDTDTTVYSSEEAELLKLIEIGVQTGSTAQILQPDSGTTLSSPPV

FGFR3 = FGFR3 (Homo sapiens (Human), UniProt P22607); test: FGFR3 in vitro kinase inhibitory activity assay (TRF); conditions: 3 h, read-out: FGFR3 % I
FGFR3, sequence (P22607 23-806): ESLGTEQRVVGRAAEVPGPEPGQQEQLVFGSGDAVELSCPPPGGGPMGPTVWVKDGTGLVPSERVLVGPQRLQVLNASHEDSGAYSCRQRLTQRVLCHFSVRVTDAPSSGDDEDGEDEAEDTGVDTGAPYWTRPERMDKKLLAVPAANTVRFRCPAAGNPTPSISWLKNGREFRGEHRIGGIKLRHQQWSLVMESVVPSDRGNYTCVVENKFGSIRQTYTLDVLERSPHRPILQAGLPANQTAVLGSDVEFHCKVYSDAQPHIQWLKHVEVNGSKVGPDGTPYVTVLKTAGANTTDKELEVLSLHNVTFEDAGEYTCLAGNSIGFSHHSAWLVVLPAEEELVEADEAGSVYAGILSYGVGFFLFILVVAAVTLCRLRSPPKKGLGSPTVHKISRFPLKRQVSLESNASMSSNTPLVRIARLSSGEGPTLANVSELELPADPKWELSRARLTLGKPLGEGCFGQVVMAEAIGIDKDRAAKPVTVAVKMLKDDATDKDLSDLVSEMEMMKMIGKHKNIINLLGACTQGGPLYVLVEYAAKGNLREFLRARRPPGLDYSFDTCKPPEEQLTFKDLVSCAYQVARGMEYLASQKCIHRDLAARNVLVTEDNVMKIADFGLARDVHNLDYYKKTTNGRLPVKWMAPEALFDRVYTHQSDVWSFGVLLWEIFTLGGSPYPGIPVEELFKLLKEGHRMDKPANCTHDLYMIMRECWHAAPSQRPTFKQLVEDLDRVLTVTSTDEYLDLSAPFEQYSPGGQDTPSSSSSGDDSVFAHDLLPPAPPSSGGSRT

Ba/F3-TEL-FGFR3 cells = test: Ba/F3-TEL-FGFR3 cell proliferation assay (Alamar Blue); type: cell-based; conditions: 72 hours, Alamar Blue; read-out: BaF3-TEL-FGFR3 prolif

SMILES: O=C(NCC(F)(F)F)Nc1cccc(-c2cnc3cc(-c4nccc(N5CCNCC5)n4)ccn23)c1 (as salt: HCl) (hydrate or solvate) [Compound 269]
melting point: 200 °C

SMILES: Nc1nc(-c2ccn3c(-c4cccc(NC(=O)NCC(F)(F)F)c4)cnc3c2)ncc1C(=O)O (as salt: HCl) (hydrate or solvate) [Compound 277]
melting point: > 260 °C

SMILES: Cc1nnc(-c2ccn3c(-c4cccc(NC(=O)NC5CC5)c4)cnc3c2)o1 [Compound 157B]
melting point: 229.6 °C

melting point: 205 °C
SMILES: O=C(Nc1cccc(-c2cnc3cc(-c4nncs4)ccn23)c1)NC1CC1 [Compound 158B]

melting point: 161 °C
SMILES: N#Cc1cnc(-c2ccn3c(-c4cccc(NC(=O)NCC(F)(F)F)c4)cnc3c2)nc1N [Compound 165B]

SMILES: O=C(NCC(F)(F)F)Nc1cccc(-c2cnc3cc(-c4nnc(NC5CC5)s4)ccn23)c1 [Compound 250]
melting point: > 280 °C
IC50 [1]: 0.075 µM
inhibition at 3 µM [2]: 25%
IC50 [2]: 1730 nM

SMILES: O=C(NCC(F)(F)F)Nc1cc(F)cc(-c2cnc3cc(-c4ccnc(C(F)(F)F)n4)ccn23)c1 [Compound 251]
melting point: 263 °C
inhibition at 10 µM [2]: 0%

SMILES: COc1cc(NC(=O)NCC(F)(F)F)cc(-c2cnc3cc(-c4ncc(F)c(N)n4)ccn23)c1 [Compound 252]
IC50 (VEGFR2): > 1000 nM
melting point: 154 °C
inhibition at 1 µM [2]: 0%

melting point: 210 °C
SMILES: N#Cc1ccnc(-c2ccn3c(-c4cccc(NC(=O)NCC(F)(F)F)c4)cnc3c2)n1 [Compound 253]
IC50 [2]: 1800 nM

SMILES: N#Cc1ccc(-c2ccn3c(-c4cccc(NC(=O)NCC(F)(F)F)c4)cnc3c2)nn1 [Compound 255]
melting point: 267 °C
inhibition at 10 µM [2]: 0%

melting point: 146 °C
SMILES: CC(C)(O)c1cnc(-c2ccn3c(-c4cccc(NC(=O)NCC(F)(F)F)c4)cnc3c2)nc1 [Compound 257]
IC50 [2]: 3900 nM

SMILES: Nc1nc(-c2ccn3c(-c4cc(NC(=O)NCC(F)(F)F)cc(C(F)(F)F)c4)cnc3c2)ncc1F [Compound 258]
inhibition at 1 µM (VEGFR2): 37%
melting point: 185 °C
inhibition at 3 µM [2]: 36%

melting point: 195 °C
SMILES: Nc1nc(-c2ccn3c(-c4cccc(NC(=O)NCC(F)(F)F)c4)cnc3c2)ncc1CN1CCC1 [Compound 259]
IC50 [2]: 2600 nM

SMILES: CN(C)Cc1cnc(-c2ccn3c(-c4cccc(NC(=O)NCC(F)(F)F)c4)cnc3c2)nc1N [Compound 260]
melting point: 130 °C
inhibition at 1 µM [2]: 0%

SMILES: Nc1nnc(-c2ccn3c(-c4cccc(NC(=O)NCC(F)(F)F)c4)cnc3c2)s1 [Compound 261]
melting point: > 260 °C
inhibition at 10 µM [2]: 0%

SMILES: O=C(NCC(F)(F)F)Nc1cccc(-c2cnc3cc(C#Cc4nccn4CCO)ccn23)c1 [Compound 262]
melting point: 228 °C
inhibition at 10 µM [2]: 20%

SMILES: CCNC(=O)Nc1cccc(-c2cnc3cc(C#Cc4cncn4C)ccn23)c1 [Compound 264]
melting point: 163 °C
IC50 [1]: 0.31 µM
inhibition at 10 µM [2]: 25%

IC50 (VEGFR2): > 30000 nM
melting point: > 250 °C
SMILES: Cn1cncc1C#Cc1ccn2c(-c3cncc(NC(=O)NCC(F)(F)F)c3)cnc2c1 [Compound 265]

SMILES: Cn1cncc1C#Cc1ccn2c(-c3cccc(NC(N)=O)c3)cnc2c1 [Compound 267]
melting point: 162 °C
inhibition at 10 µM [2]: 55%

SMILES: NC(=O)Nc1cccc(-c2cnc3cc(-c4nncs4)ccn23)c1 [Compound 268]
melting point: 259 °C
IC50 [1]: 1.83 µM
inhibition at 3 µM [2]: 23.5%

SMILES: O=C(NCC(F)(F)F)Nc1cccc(-c2cnc3cc(-c4nccc(N5CCN(CCO)CC5)n4)ccn23)c1 [Compound 270]
melting point: 179.8 °C
inhibition at 3 µM [2]: 16%

inhibition at 0.001 µM (FGFR3): 59%
melting point: 80 °C
IC50 (Ba/F3-TEL-FGFR3 cells): 63 nM
SMILES: NCC1CCN(c2ccc(-c3ccn4c(-c5cccc(NC(=O)NCC(F)(F)F)c5)cnc4c3)cn2)CC1 [Compound 271]
IC50 [2]: 120 nM

inhibition at 0.00097 µM (FGFR3): 51%
melting point: 145 °C
IC50 (Ba/F3-TEL-FGFR3 cells): 51 nM
SMILES: CN(C)S(=O)(=O)NCC1CCN(c2ccc(-c3ccn4c(-c5cccc(NC(=O)NCC(F)(F)F)c5)cnc4c3)cn2)CC1 [Compound 272]
IC50 [2]: 200 nM

SMILES: CC(C)COC(=O)Nc1nc(-c2ccn3c(-c4cccc(NC(=O)NCC(F)(F)F)c4)cnc3c2)ncc1F [Compound 273]
inhibition at 1 µM (VEGFR2): 40%
melting point: 215.2 °C
inhibition at 10 µM [2]: 43%

inhibition at 1 µM (VEGFR2): 55%
melting point: 190 °C
SMILES: NCc1cc(NC(=O)NCC(F)(F)F)cc(-c2cnc3cc(-c4ccnc(C(F)(F)F)n4)ccn23)c1 [Compound 274]

SMILES: O=C(NCC(F)(F)F)Nc1cccc(-c2cnc3cc(-c4ncc(CO)cn4)ccn23)c1 [Compound 276]
melting point: 222 °C
inhibition at 1 µM [2]: 0%

SMILES: CC(O)c1cnc(-c2ccn3c(-c4cccc(NC(=O)NCC(F)(F)F)c4)cnc3c2)nc1 (centres unmarked) [Compound 278]
melting point: 224 °C
inhibition at 1 µM [2]: 0%

SMILES: CS(=O)(=O)Nc1nc(-c2ccn3c(-c4cccc(NC(=O)NCC(F)(F)F)c4)cnc3c2)ncc1F [Compound 279]
melting point: > 350 °C
inhibition at 10 µM [2]: 7%
